Assays:
Assay type in all cases: in vitro ADME
[1] = Gastric stability of anthocyanins in extracts, standardized in vitro digestion (simulated gastric fluid, pepsin, pH 3.0); conditions: for Gastric stability: % of undigested
Procedure: (§1) A standardized in vitro digestion procedure was applied to each sample [20]. For the gastric phase, 7.5 mL of a simulated gastric fluid (in mM: KCl 6.9, KH2PO4 0.9, NaHCO3 25, NaCl 47.2, MgCl2(H2O) 0.1, (NH4)2CO3 0.5, pH 3.0), 5 µL of CaCl2 (0.3 M) and 1.6 mL of porcine pepsin solution (25,000 U/mL) were added and the pH of was adjusted to 3.0 using HCl (1 M). Demineralized water was added to the gastric chyme to complete a volume of 20 mL. Nitrogen was flushed into the headspace of the tubes before incubation at 37 °C during 2 h in the dark, while end-over-end rotation (40 rpm). For the intestinal phase simulation, the gastric chyme was mixed with 11 mL of simulated intestinal fluid (in mM: KCl 6.8, KH2PO4 0.8, NaHCO3 85, NaCl 38.4, MgCl2(H2O) 0.33, pH 7.0), 40 µL of CaCl2, 5 mL of pancreatin solution (800 U/mL based on trypsin activity) and 2.5 mL of bile solution (160 mM). NaOH (1 M) was used to adjust the pH to 7 and water to complete the volume until 40 mL. Prior to incubation in the dark, at 37 °C, 2 h, end-over-end rotation, the headspace of the tubes was flushed with nitrogen.
(§2) Aliquots from gastric and intestinal digests were sampled along black carrot and strawberry extracts digestion, stabilized by acidification with formic acid and stored at −20 °C until further analysis. Stability (%) was calculated as indicated by Equations (1) and (2). (1) Gastric stability (%)=(anthocyanin (mg·100 mL^−1) after gastric digestion)/(anthocyanin (mg·100 mL^−1) before digestion)×100 (2) Intestinal stability (%)=(anthocyanin (mg·100 mL^−1) after intestinal digestion)/(anthocyanin (mg·100 mL^−1) before digestion)×100

[2] = In vitro bioaccessibility after digestion of matrix-containing powder; conditions: for Post-digestion concentration (bioaccessible fraction): mean ± SD n = 3
Procedure: as §1
After digestion of the powdered samples, an ultracentrifugation (Beckman L7 ultracentrifuge, Palo, Alto, CA, USA) at 165,000× g, 4 °C, 65 min, was performed to separate soluble and non-soluble fractions. The supernatant, containing the bioaccessible anthocyanins, was isolated. For the determination of anthocyanins, the digest was acidified with formic acid (1%) to stabilize the compounds, prior to the quantification by high performance liquid chromatography (HPLC). Results are shown as the ratio of the bioaccessible compound concentration to the initial compound concentration in the sample, as indicated in Equation (3). (3) Bioaccessibility (%)=(anthocyanin (mg.100 g^−1) after digestion)/(anthocyanin (mg.100 g^−1) before digestion)×100

[3] = Intestinal stability of anthocyanins in extracts, standardized in vitro digestion (simulated intestinal fluid, pancreatin, bile, pH 7); conditions: for Intestinal stability: % of undigested; for Post-Intestinal concentration: mean ± SD n = 3
Procedure: as §1, §2

[4] = co-digestion of black carrot and strawberry extracts
[5] = co-digestion of black carrot and strawberry extracts, mean ± SD n = 3
[6] = single digestion, liquid extract, 2 h 37 °C pH 3.0, mean ± SD n = 3
[7] = single digestion, liquid extract
[8] = co-digestion of black carrot and strawberry powder
[9] = single digestion, matrix-containing powder
[10] = single digestion, liquid extract, pH 7, 2 h 37 °C

SMILES | Gastric stability [1, 4] [%] | Post-Gastric concentration [1, 5] | Post-Gastric concentration [1, 6] | Gastric stability [1, 7] [%] | Bioaccessibility [2, 8] [%] | Bioaccessibility [2, 9] [%] | Intestinal stability [3, 4] [%] | Post-Intestinal concentration [3, 4] | Intestinal stability [3, 7] [%] | Post-Intestinal concentration [3, 10] | Post-digestion concentration (bioaccessible fraction) [2, 8] | Post-digestion concentration (bioaccessible fraction) [2, 9]
OC[C@H]1O[C@@H](Oc2cc3c(O)cc(O)cc3[o+]c2-c2ccc(O)c(O)c2)[C@H](O[C@@H]2OC[C@@H](O)[C@H](O)[C@H]2O)[C@@H](O)[C@H]1O [Cyanidin-3-xylosyl-galactoside] | 83 | 0.98 ± 0.02 mg/100 mL of extract | 0.95 ± 0.00 mg/100 mL of extract | 81 | 84 | 33 | 92 | 1.09 ± 0.01 mg/100 mL of extract | 79 | 0.94 ± 0.01 mg/100 mL of extract | 113.8 ± 0.2 mg/100 g of sample (dry weight) | 44.1 ± 4.4 mg/100 g of sample (dry weight)
O=C(/C=C/c1ccc(O)cc1)OC[C@H]1O[C@@H](OC[C@H]2O[C@@H](Oc3cc4c(O)cc(O)cc4[o+]c3-c3ccc(O)c(O)c3)[C@H](O[C@@H]3OC[C@@H](O)[C@H](O)[C@H]3O)[C@@H](O)[C@H]2O)[C@H](O)[C@@H](O)[C@@H]1O [Cyanidin-3-xylosyl-coumaroyl-glucosyl-galactoside] | 66 | 1.16 ± 0.02 mg/100 mL of extract | 1.14 ± 0.01 mg/100 mL of extract | 65 | 52 | 28 | 42 | 0.75 ± 0.04 mg/100 mL of extract | 48 | 0.85 ± 0.07 mg/100 mL of extract | 105.2 ± 0.9 mg/100 g of sample (dry weight) | 55.8 ± 5.2 mg/100 g of sample (dry weight)
COc1cc(/C=C/C(=O)OC[C@H]2O[C@@H](OC[C@H]3O[C@@H](Oc4cc5c(O)cc(O)cc5[o+]c4-c4ccc(O)c(O)c4)[C@H](O[C@@H]4OC[C@@H](O)[C@H](O)[C@H]4O)[C@@H](O)[C@H]3O)[C@H](O)[C@@H](O)[C@@H]2O)ccc1O [Cyanidin-3-xylosyl-feruloyl-glucosyl-galactoside] | 86 | 8.28 ± 0.03 mg/100 mL of extract | 8.23 ± 0.04 mg/100 mL of extract | 86 | 48 | 34 | 60 | 5.81 ± 0.03 mg/100 mL of extract | 58 | 5.54 ± 0.05 mg/100 mL of extract | 528.3 ± 15.0 mg/100 g of sample (dry weight) | 378.4 ± 26.1 mg/100 g of sample (dry weight)

More lines, main results first:

Gastric stability [1, 4] [%] | Post-Gastric concentration [1, 5] | Post-Gastric concentration [1, 6] | Gastric stability [1, 7] [%] | Bioaccessibility [2, 8] [%] | Bioaccessibility [2, 9] [%] | Intestinal stability [3, 4] [%] | Post-Intestinal concentration [3, 4] | Intestinal stability [3, 7] [%] | Post-Intestinal concentration [3, 10] | SMILES | Post-digestion concentration (bioaccessible fraction) [2, 8] | Post-digestion concentration (bioaccessible fraction) [2, 9]
92 | 3.57 ± 0.07 mg/100 mL of extract | 3.37 ± 0.01 mg/100 mL of extract | 87 | 36 | 34 | 49 | 1.91 ± 0.02 mg/100 mL of extract | 46 | 1.77 ± 0.01 mg/100 mL of extract | O=C(O)CC(=O)OC[C@H]1O[C@@H](Oc2cc3c(O)cc(O)cc3[o+]c2-c2ccc(O)cc2)[C@H](O)[C@@H](O)[C@@H]1O [Pelargonidin-3-malonyl-glucoside] | 81.3 ± 6.6 mg/100 g of sample (dry weight) | 76.2 ± 1.8 mg/100 g of sample (dry weight)
76 | 12.63 ± 0.46 mg/100 mL of extract | 11.13 ± 0.09 mg/100 mL of extract | 90 | 28 | 36 | 35 | 5.78 ± 0.13 mg/100 mL of extract | 49 | 6.01 ± 0.02 mg/100 mL of extract | OC[C@H]1O[C@@H](Oc2cc3c(O)cc(O)cc3[o+]c2-c2ccc(O)cc2)[C@H](O)[C@@H](O)[C@@H]1O [Pelargonidin-3-glucoside] | 272.5 ± 19.7 mg/100 g of sample (dry weight) | 256.6 ± 8.3 mg/100 g of sample (dry weight)
56 | 0.24 ± 0.02 mg/100 mL of extract | 0.25 ± 0.01 mg/100 mL of extract | 59 | 105 | 62 | 99 | 0.42 ± 0.00 mg/100 mL of extract | 86 | 0.36 ± 0.00 mg/100 mL of extract | OC[C@H]1O[C@@H](OC[C@H]2O[C@@H](Oc3cc4c(O)cc(O)cc4[o+]c3-c3ccc(O)c(O)c3)[C@H](O[C@@H]3OC[C@@H](O)[C@H](O)[C@H]3O)[C@@H](O)[C@H]2O)[C@H](O)[C@@H](O)[C@@H]1O [Cyanidin-3-xylosyl-glucosyl-galactoside] | 50.5 ± 9.2 mg/100 g of sample (dry weight) | 29.7 ± 3.7 mg/100 g of sample (dry weight)

Reference: paper PMC7692923, “Co-Ingestion of Black Carrot and Strawberry. Effects on Anthocyanin Stability, Bioaccessibility and Uptake” (Foods, 2020)
